In patent US10131652B2, “Pyrimidinyloxy benzene derivatives as herbicides” (E. I. DU PONT DE NEMOURS AND COMPANY, priority 2014, dated 2018):

Key:
Assay type in all cases: in vivo
[1] = system: galium (catchweed bedstraw, Galium aparine); test: Test B postemergence plant response
Procedure, shortened: (§1)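 Injury was assessed visually about 10 days after treatment, scored from 0 (no effect) to 100 (complete control) by comparison with untreated controls. Test chemicals had been applied postemergence to potted plants at the one- to two-leaf stage, grown in loam soil and sand in a greenhouse.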

[2] = system: blackgrass (Alopecurus myosuroides); test: Test B postemergence plant response
Procedure, shortened: as §1

[3] = system: Italian ryegrass (Lolium multiflorum); test: Test B pre-/postemergence plant response
Text: (§2) Seeds of plant species selected from bamyardgrass (Echinochloa crus-galli), kochia (Kochia scoparia), ragweed (common ragweed, Ambrosia elatior), Italian ryegrass (Lolium multiflorum), large (Lg) crabgrass (Digitaria sanguinalis), giant foxtail (Setaria faberii), momingglory (Ipomoea spp.), pigweed (Amaranthus retroflexus), velvetleaf (Abutilon theophrasti), wheat (Triticum aestivum), and corn (Zea mays) were planted into a blend of loam soil and sand and treated preemergence with a directed soil spray using test chemicals formulated in a non-phytotoxic solvent mixture which included a surfactant. At the same time, plants selected from these crop and weed species and also blackgrass (Alopecurus myosuroides), and galium (catchweed bedstraw, Galium aparine) were planted in pots containing the same blend of loam soil and sand and treated with postemergence applications of test chemicals formulated in the same manner. Plants ranged in height from 2 to 10 cm and were in the one- to two-leaf stage for the postemergence treatment. Treated plants and untreated controls were maintained in a greenhouse for approximately 10 days, after which time all treated plants were compared to untreated controls and visually evaluated for injury. Plant response ratings, summarized in Table B, are based on a 0 to 100 scale where 0 is no effect and 100 is complete control. A dash (-) response means no test result.

[4] = system: pigweed (Amaranthus retroflexus); test: Test B pre-/postemergence plant response
Text: as §2

[5] = system: ragweed (common ragweed, Ambrosia elatior); test: Test B pre-/postemergence plant response
Text: as §2

[6] = system: giant foxtail (Setaria faberii); test: Test B pre-/postemergence plant response
Text: as §2

[7] = system: wheat (Triticum aestivum); test: Test B pre-/postemergence plant response
Text: as §2

[8] = system: corn (Zea mays); test: Test B pre-/postemergence plant response
Text: as §2

[9] = system: kochia (Kochia scoparia); test: Test B pre-/postemergence plant response
Text: as §2

[10] = system: barnyardgrass (Echinochloa crus-galli); test: Test B pre-/postemergence plant response
Text: as §2

[11] = system: small-flower umbrella sedge (Cyperus difformis); test: Test C flooded paddy test plant response; conditions: Flood, 250 g ai/ha; scale of 0 to 100 where 0 is no effect and 100 is complete control; 13 to 15 days
Procedure, shortened: (§3)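 Greenhouse paddy assay, 13–15 days. Treatment into 3 cm floodwater over 2-leaf plants; visual 0–100 rating against controls.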

[12] = system: ducksalad (Heteranthera limosa); test: Test C flooded paddy test plant response; conditions: Flood, 250 g ai/ha; scale of 0 to 100 where 0 is no effect and 100 is complete control; 13 to 15 days
Procedure, shortened: as §3

[13] = system: rice (Oryza sativa); test: Test C flooded paddy test plant response; conditions: Flood, 250 g ai/ha; scale of 0 to 100 where 0 is no effect and 100 is complete control; 13 to 15 days
Procedure, shortened: as §3

[14] = system: barnyardgrass (Echinochloa crus-galli); test: Test C flooded paddy test plant response; conditions: Flood, 250 g ai/ha; scale of 0 to 100 where 0 is no effect and 100 is complete control; 13 to 15 days
Procedure, shortened: as §3

[15] = 125 g ai/ha, postemergence, 0 to 100 scale, 0 no effect, 100 complete control
[16] = Postemergence, 500 g ai/ha, 0 to 100 scale (0 no effect, 100 complete control)
[17] = Preemergence, 125 g ai/ha, 0 to 100 scale (0 no effect, 100 complete control)
[18] = Preemergence, 500 g ai/ha, 0 to 100 scale where 0 is no effect and 100 is complete control
[19] = 31 g ai/ha, Postemergence, 0 to 100 scale, 0 no effect, 100 complete control
[20] = 31 g ai/ha, Preemergence, 0 to 100 scale where 0 is no effect and 100 is complete control

Row | Compound | Plant response rating, Galium [1, 15] | Plant response rating, Blackgrass [2, 15] | Plant response rating, Ryegrass, Italian [3, 15] | Ryegrass, Italian plant response rating [3, 17] | Plant response rating, Pigweed [4, 15] | Pigweed plant response rating [4, 17] | Plant response rating, Ragweed [5, 15] | Ragweed plant response rating [5, 17] | Plant response rating, Foxtail, Giant [6, 15] | Foxtail, Giant plant response rating [6, 17] | Plant response rating, Wheat [7, 15] | Plant response rating, Corn [8, 15] | Plant response rating, Kochia [9, 15] | Kochia plant response rating [9, 17] | Plant response rating, Barnyardgrass [10, 15] | Barnyardgrass plant response rating [10, 17] | Sedge, Umbrella plant response rating [11] | Ducksalad plant response rating [12] | Rice plant response rating [13] | Barnyardgrass plant response rating [14] | also measured
1 | FC(F)(F)c1csc(-c2ccccc2Oc2ncc(I)cn2)n1 [Compound 138] | 0 | 0 | 0 | 0 | 0 | 0 | 0 | 0 | 0 | 0 | 0 | 0 | 0 | 0 | 0 | 0 | 0 | 20 | 0 | 0 | Plant response rating, Galium [1, 16]: 0; Plant response rating, Blackgrass [2, 16]: 0; Plant response rating, Ryegrass, Italian [3, 16]: 0; Plant response rating, Ryegrass, Italian [3, 18]: 0; Plant response rating, Pigweed [4, 16]: 0; Plant response rating, Pigweed [4, 18]: 0; Plant response rating, Ragweed [5, 16]: 0; Plant response rating, Ragweed [5, 18]: 0; Plant response rating, Foxtail, Giant [6, 16]: 0; Plant response rating, Foxtail, Giant [6, 18]: 0; Plant response rating, Wheat [7, 16]: 0; Plant response rating, Corn [8, 16]: 0; Plant response rating, Kochia [9, 16]: 0; Plant response rating, Kochia [9, 18]: 0; Plant response rating, Barnyardgrass [10, 16]: 0; Plant response rating, Barnyardgrass [10, 18]: 0
2 | FC(F)(F)c1csc(-c2ccccc2Oc2ncc(Br)cn2)n1 [Compound 139] | 0 | 0 | 0 | 0 | 0 | 0 | 0 | 0 | 0 | 0 | 0 | 0 | 0 | 0 | 0 | 0 | 0 | 30 | 20 | 0 | Plant response rating, Galium [1, 16]: 0; Plant response rating, Blackgrass [2, 16]: 0; Plant response rating, Ryegrass, Italian [3, 16]: 0; Plant response rating, Ryegrass, Italian [3, 18]: 0; Plant response rating, Pigweed [4, 16]: 0; Plant response rating, Pigweed [4, 18]: 0; Plant response rating, Ragweed [5, 16]: 0; Plant response rating, Ragweed [5, 18]: 0; Plant response rating, Foxtail, Giant [6, 16]: 0; Plant response rating, Foxtail, Giant [6, 18]: 0; Plant response rating, Wheat [7, 16]: 0; Plant response rating, Corn [8, 16]: 0; Plant response rating, Kochia [9, 16]: 0; Plant response rating, Kochia [9, 18]: 0; Plant response rating, Barnyardgrass [10, 16]: 0; Plant response rating, Barnyardgrass [10, 18]: 0
3 | O=Cc1cc(-c2ccccc2Oc2ncc(Cl)cn2)co1 [Compound 140] | 0 | 0 | 0 | 0 | 0 | 0 | 0 | 0 | 0 | 0 | 0 | 0 | 0 | 0 | 0 | 0 | 0 | 0 | 0 | 0 | Plant response rating, Blackgrass [2, 19]: 0; Plant response rating, Ryegrass, Italian [3, 20]: 0; Plant response rating, Pigweed [4, 20]: 0; Plant response rating, Ragweed [5, 20]: 0; Plant response rating, Foxtail, Giant [6, 19]: 0; Plant response rating, Foxtail, Giant [6, 20]: 0; Plant response rating, Corn [8, 19]: 0; Plant response rating, Kochia [9, 20]: 0; Plant response rating, Barnyardgrass [10, 19]: 0; Plant response rating, Barnyardgrass [10, 20]: 0
4 | FC(F)c1cc(-c2ccccc2Oc2ncc(Cl)cn2)co1 [Compound 141] | 0 | 0 | 0 | 0 | 20 | 0 | 0 | 0 | 0 | 0 | 0 | 30 | 0 | 0 | 0 | 0 | 0 | 30 | 0 | 0 | Plant response rating, Blackgrass [2, 19]: 0; Plant response rating, Ryegrass, Italian [3, 20]: 0; Plant response rating, Pigweed [4, 20]: 0; Plant response rating, Ragweed [5, 20]: 0; Plant response rating, Foxtail, Giant [6, 19]: 0; Plant response rating, Foxtail, Giant [6, 20]: 0; Plant response rating, Corn [8, 19]: 0; Plant response rating, Kochia [9, 20]: 0; Plant response rating, Barnyardgrass [10, 19]: 0; Plant response rating, Barnyardgrass [10, 20]: 0
5 | FC(F)(F)C(F)(F)c1cc(-c2ccccc2Oc2ncc(Cl)cn2)no1 [Compound 142] | 10 | 0 | 0 | 0 | 20 | 0 | 0 | 0 | 0 | 20 | 0 | 20 | 20 | 0 | 0 | 0 | 0 | 0 | 0 | 0 | Plant response rating, Blackgrass [2, 19]: 0; Plant response rating, Ryegrass, Italian [3, 20]: 0; Plant response rating, Pigweed [4, 20]: 0; Plant response rating, Ragweed [5, 20]: 0; Plant response rating, Foxtail, Giant [6, 19]: 0; Plant response rating, Foxtail, Giant [6, 20]: 0; Plant response rating, Corn [8, 19]: 0; Plant response rating, Kochia [9, 20]: 0; Plant response rating, Barnyardgrass [10, 19]: 0; Plant response rating, Barnyardgrass [10, 20]: 0
